Source: article PMC7278695, “Dual SMO/BRAF Inhibition by Flavonolignans from Silybum marianum” (Antioxidants, 2020)

What was measured:
[1] = test system: Hedgehog signaling pathway in NIH3T3 Shh-Light II cells; experiment: HH-dependent (Gli-responsive) luciferase reporter assay; format: cell-based; settings: SAG 200 nM, 48 h; for HH inhibitory activity (in words): maximum concentration of 30 μM
Experimental: The luciferase assay was carried out in NIH3T3 Shh-Light II cells, stably incorporating a Gli-responsive luciferase reporter and the pRL-TK Renilla, treated with SAG (SMO Agonist, 200 nM, Alexis Biochemicals Farmingdale, NY, USA) and the selected compounds for 48 h. Luciferases activities from P. pyralisand and R. reniformis were assayed with a dual-luciferase assay system, according to the manufacturer’s instructions (Biotium Inc., Hayward, CA, USA). The results were expressed as a P. pyralisand/R. reniformis luciferase ratio and represent the mean ± S.D. of three experiments, each performed in triplicate.
With respect to the SMO receptor, the HH inhibitory activity of the compounds, alone and in a racemate, was investigated in a luciferase reporter assay, which is widely used for characterizing HH inhibitors. The HH inhibitory activity of synthesized molecules was evaluated in NIH3T3 Shh Light II cells, stably incorporating a Gli-responsive firefly luciferase treated with the synthetic SMO agonist SAG [32], alone and in combination with the tested compounds.

[2] = test system: A-375 skin melanoma malignant cells with BRAF V600E mutation; experiment: MTT cytotoxicity assay, A-375; format: cell-based; settings: Homo sapiens, 72 h, read-out: IC50 (95% Confidence Interval), A-375
Experimental: (§1) The cytotoxic activity of the tested compounds was evaluated on non-tumorigenic human keratinocytes (HaCaT, #300493), skin melanoma malignant cells with BRAF V600E mutation (A-375, #300110), and skin epidermoid carcinoma cells (A-431, #300112), all purchased from CLS Cell Lines Service (Eppelheim, Germany). The cell lines were maintained in DMEM (#DMEM-HPA, Capricorn®, Ebsdorfergrund, Germany) supplemented with 10% fetal bovine serum (#FBS-HI-12A, Capricorn®, Ebsdorfergrund, Germany) and 4 mM L-glutamine (#G7513, Merck (Sigma-Aldrich), Germany) and incubated under standard conditions (5% CO2, 37 °C, 90%-95% humidity). The experiments were performed between passages 4 and 15 whereby the cells were sub-cultured every 4th day by splitting 1:8, according to the protocol of the biobank. Briefly, the cell cultures were rinsed with PBS without calcium and magnesium (PBS, #D8537, Merck (Sigma-Aldrich), Germany) and incubated for 8-10 min with accutase (#ACC-1B, Capricorn®, Ebsdorfergrund, Germany) as a detachment agent. After centrifugation, the cells were counted with trypan blue (0.4% solution, #T8154, Merck (Sigma-Aldrich), Germany). The antiproliferative effects of SilA, SilB, […], and DHSilB were tested using the MTT-dye (3-(4,5-dimethylthiazol-2-yl)-2,5-diphenyltetrazolium bromide) assay according to ISO 10993-5-2009, Annex C [26]. Briefly, the cells were seeded in 96-well plates at a density of 0.1 × 10^6/mL, incubated for 24 h at 37 °C (5% CO2), and treated with ten concentrations of the compounds ranging from 3.9 to 1000 μM in twofold serial dilutions. After 72 h, the MTT-dye (#M5655-1G, Merck (Sigma-Aldrich), Germany) was added to each sample at a final concentration of 0.05 mg/mL and the plates were incubated for 2 h at 37 °C (5% CO2). The supernatant was aspirated, and the formazan crystals formed as a product of the enzymatic MTT reduction were dissolved in 2-propranol (#33539, Merck (Sigma-Aldrich), Germany) supplemented with 5% formic acid (#300415, […]/Neuber, Sofia, Bulgaria). The absorbance of the product was measured at 550 nm (reference filter 690 nm) on an ELISA Reader BioTek ELx800 (BioTek). The experiments for evaluation of the BRAF inhibition and cytotoxicity were performed in triplicate. The IC50 values were calculated by the BfROpenLab's non-linear regression nodes in the KNIME analytics platform with the constant slope model.

BRAF V600E kinase = biological target: T1, BRAF V600E kinase (Homo sapiens, UniProt P15056, V600E); experiment: BRAF (V600E) Kinase Assay Kit, Kinase-Glo luminescence; format: biochemical; settings: 45 min at 30 °C
T1 construct: purchased BPS Bioscience #48688
T1 sequence (P15056 whole entry V600E): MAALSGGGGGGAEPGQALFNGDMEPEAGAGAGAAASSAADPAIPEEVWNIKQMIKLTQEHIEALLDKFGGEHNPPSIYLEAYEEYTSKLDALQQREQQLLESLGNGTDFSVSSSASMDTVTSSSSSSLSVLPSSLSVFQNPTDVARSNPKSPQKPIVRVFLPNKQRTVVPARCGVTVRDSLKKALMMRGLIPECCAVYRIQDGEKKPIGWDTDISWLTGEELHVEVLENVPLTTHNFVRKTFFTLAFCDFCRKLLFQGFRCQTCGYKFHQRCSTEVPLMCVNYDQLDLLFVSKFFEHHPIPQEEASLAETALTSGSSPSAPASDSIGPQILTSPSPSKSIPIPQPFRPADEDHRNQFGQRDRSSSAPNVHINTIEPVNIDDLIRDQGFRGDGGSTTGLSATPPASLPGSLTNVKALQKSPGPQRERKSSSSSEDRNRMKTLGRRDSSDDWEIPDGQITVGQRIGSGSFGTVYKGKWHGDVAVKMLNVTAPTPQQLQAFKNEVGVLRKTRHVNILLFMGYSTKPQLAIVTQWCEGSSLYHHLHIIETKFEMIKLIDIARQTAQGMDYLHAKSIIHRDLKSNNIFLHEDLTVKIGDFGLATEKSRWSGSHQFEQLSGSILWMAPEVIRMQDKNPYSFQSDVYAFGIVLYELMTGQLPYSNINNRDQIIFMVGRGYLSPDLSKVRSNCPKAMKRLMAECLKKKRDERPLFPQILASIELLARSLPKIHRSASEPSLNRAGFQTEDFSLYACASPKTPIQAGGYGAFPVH
Experimental: The activities of silybins and dehydrosilybins were tested using a commercial BRAF (V600E) (serine/threonine-protein kinase B-raf, V600E mutant) Kinase Assay Kit (#48688, BPS Bioscience, San Diego, CA, USA). Briefly, the BRAF (V600E) enzyme was incubated for 45 min at 30 °C with five different concentrations of each tested compound in logarithmic dilutions (1000, 100, 10, 1, and 0.1 µM). The reaction mixture was prepared following the instructions of the producer. The luminescence of the product of the enzyme activity was measured with the Kinase-Glo MAX Kit (#V6071, Promega, Madison, WI, USA) at a microplate luminometer (Synergy Multi-Mode Reader, BioTek, Winooski, VT, USA). Higher luminescent signal corresponded to […] enzyme activity. […] The reaction mixture without the test inhibitor represented the positive control, whereas the mixture without the test inhibitor and without the enzyme was used as blank.
The experiments for evaluation of the BRAF inhibition and cytotoxicity were performed in triplicate. The IC50 values were calculated by the BfROpenLab’s non-linear regression nodes in the KNIME analytics platform with the constant slope model.

[3] = test system: A-431 skin epidermoid carcinoma cells; experiment: MTT cytotoxicity assay, A-431; format: cell-based; settings: Homo sapiens, 72 h, read-out: IC50 (95% Confidence Interval), A-431
Experimental: as §1

[4] = biological target: T2, Human Myc-DDK-tagged SMO in HEK293T cells (Homo sapiens, UniProt Q99835); experiment: BODIPY-Cyclopamine binding (displacement) assay; settings: BC 5 nM, 2 h at 37 °C
T2 construct: Myc; DDK (FLAG); expressed in transfected cells; host or cells: HEK293T
T2 sequence (Q99835 28-787): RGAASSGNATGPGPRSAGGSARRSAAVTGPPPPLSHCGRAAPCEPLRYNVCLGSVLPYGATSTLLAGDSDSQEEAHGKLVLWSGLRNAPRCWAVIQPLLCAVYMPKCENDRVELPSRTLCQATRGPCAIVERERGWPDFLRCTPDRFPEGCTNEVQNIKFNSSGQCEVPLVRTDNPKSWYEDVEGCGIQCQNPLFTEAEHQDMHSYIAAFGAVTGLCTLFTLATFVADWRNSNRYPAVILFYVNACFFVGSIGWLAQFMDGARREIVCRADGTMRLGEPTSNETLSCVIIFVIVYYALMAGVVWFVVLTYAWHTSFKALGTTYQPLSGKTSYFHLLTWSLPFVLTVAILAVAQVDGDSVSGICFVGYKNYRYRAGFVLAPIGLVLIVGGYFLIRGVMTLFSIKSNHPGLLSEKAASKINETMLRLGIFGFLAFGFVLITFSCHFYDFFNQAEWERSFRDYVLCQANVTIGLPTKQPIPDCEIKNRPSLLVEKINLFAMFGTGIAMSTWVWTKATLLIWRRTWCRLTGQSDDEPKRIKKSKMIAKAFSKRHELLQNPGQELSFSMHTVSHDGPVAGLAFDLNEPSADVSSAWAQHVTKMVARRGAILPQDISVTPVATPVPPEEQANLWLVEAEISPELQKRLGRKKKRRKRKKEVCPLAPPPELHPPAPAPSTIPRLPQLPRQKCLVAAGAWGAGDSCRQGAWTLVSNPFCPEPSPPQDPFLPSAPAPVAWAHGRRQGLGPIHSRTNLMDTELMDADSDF
Experimental: Human Myc-DDK-tagged SMO or empty vector was transfected in HEK293T cells. Cells were washed in phosphate-buffered saline (PBS) supplemented with 0.5% fetal bovine serum, fixed in 4% paraformaldehyde in PBS for 10 min, and incubated for 2 h at 37 °C, both in the same medium supplemented with BODIPY-Cyclopamine (BioVision Inc., San Francisco, CA, USA) (BC, 5 nM) and the studied compounds. The cells were permeabilized with Triton X100 (Sigma-Aldrich, St. Louis, MO, USA) 0.2%, and Hoechst reagent was used for cell nuclei staining. Data were expressed as a percentage of BC incorporation observed with BC alone.
To further investigate the binding properties of the selected compounds to the SMO receptor, we performed a displacement assay based on the use of BODIPY-Cyclopamine, which is known to interact with the binding site of SMO antagonists located within the heptahelical bundle of the receptor. To this aim, HEK293T cells were transiently transfected for expression of SMO and then incubated with BC in the presence or absence of increased amounts of DHSilA or DHSilAB.

[5] = test system: HaCaT non-tumorigenic human keratinocytes; experiment: MTT cytotoxicity assay, HaCaT; format: cell-based; settings: 72 h, read-out: IC50 (95% Confidence Interval), HaCaT
Experimental: as §1

COc1cc([C@H]2Oc3cc(-c4oc5cc(O)cc(O)c5c(=O)c4O)ccc3O[C@@H]2CO)ccc1O [DHSilA, 2,3-dehydrosilybin A]
HH inhibitory activity (in words) [1]: high activity | IC50 ([1]; read-out: IC50, HH inhibitory activity): 5 to 10 µM | IC50 [2]: 83 µM | IC50 (BRAF V600E kinase): 70.6 µM | IC50 [3]: 97 µM | Inhibition of BODIPY-Cyclopamine (BC) binding to cells expressing SMO [4]: inhibited BC binding to cells expressing SMO in a dose-dependent manner | IC50 [5]: 231 µM

COc1cc([C@@H]2Oc3cc(-c4oc5cc(O)cc(O)c5c(=O)c4O)ccc3O[C@H]2CO)ccc1O [DHSilB, 2,3-dehydrosilybin B]
HH inhibitory activity (in words) [1]: inactive | IC50 [2]: 86 µM | IC50 (BRAF V600E kinase): 24.9 µM | IC50 [3]: 130 µM | IC50 [5]: 164 µM

COc1cc([C@H]2Oc3cc([C@H]4Oc5cc(O)cc(O)c5C(=O)[C@@H]4O)ccc3O[C@@H]2CO)ccc1O [SilA, silybin A]
HH inhibitory activity (in words) [1]: mild activity | IC50 [2]: 97 µM | IC50 (BRAF V600E kinase): 104 µM | IC50 [3]: 126 µM | IC50 [5]: 120 µM

COc1cc([C@@H]2Oc3cc([C@H]4Oc5cc(O)cc(O)c5C(=O)[C@@H]4O)ccc3O[C@H]2CO)ccc1O [SilB, silybin B]
HH inhibitory activity (in words) [1]: mild activity | IC50 [2]: 120 µM | IC50 (BRAF V600E kinase): 73.9 µM | IC50 [3]: 166 µM | IC50 [5]: 150 µM
